From ChEMBL document CHEMBL4385659, “Essential structure of orexin 1 receptor antagonist YNT-707, Part IV: The role of D-ring in 4,5-epoxymorphinan on the orexin 1 receptor antagonistic activity” (Bioorg Med Chem Lett, 2019)

Legend:
[1] = biological target: T1, Orexin/Hypocretin receptor type 1 (Homo sapiens, UniProt O43613); experiment: Antagonist activity at human OX1R expressed in CHOK1 cells assessed as inhibition of orexin A-induced intracellular Ca2+ release preincubated for 15 mins followed by orexin A addition by Fura 2-AM dye based fluorescence assay based by Cheng-Prusoff equation analysis; assay type: functional, cell-based
T1 sequence (O43613 whole entry): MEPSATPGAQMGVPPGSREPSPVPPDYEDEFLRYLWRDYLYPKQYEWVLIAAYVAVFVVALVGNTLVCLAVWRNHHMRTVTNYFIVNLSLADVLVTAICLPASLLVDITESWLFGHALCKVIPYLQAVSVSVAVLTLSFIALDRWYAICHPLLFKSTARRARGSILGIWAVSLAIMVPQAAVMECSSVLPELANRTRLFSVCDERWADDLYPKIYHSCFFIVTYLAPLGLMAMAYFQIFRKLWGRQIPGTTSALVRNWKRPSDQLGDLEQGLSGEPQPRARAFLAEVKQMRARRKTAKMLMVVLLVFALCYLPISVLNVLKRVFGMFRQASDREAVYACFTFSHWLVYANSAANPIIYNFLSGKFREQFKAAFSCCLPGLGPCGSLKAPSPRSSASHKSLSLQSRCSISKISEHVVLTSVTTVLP

[2] = biological target: T2, Orexin/Hypocretin receptor type 1 (Homo sapiens) (UniProt O43613); experiment: Antagonist activity at human OX1R expressed in CHOK1 cells assessed as inhibition of orexin A-induced intracellular Ca2+ release at 10 uM preincubated for 15 mins followed by orexin A addition by Fura 2-AM dye based fluorescence assay […]; assay type: functional, cell-based
T2 sequence (whole entry): T1 sequence (O43613 whole entry)

In the case of `COc1ccc2c3c1O[C@@H]1[C@H]3[C@@H](CC[C@H]1N(C)C(=O)/C=C/c1ccoc1)[C@H](N(CC1CC1)S(=O)(=O)c1ccccc1)C2`, the Ki [1] is reported as 20.9 nM.

In the case of `COc1ccc2c3c1O[C@H]1[C@@H](N(C)C(=O)/C=C/c4ccoc4)CC[C@](O)([C@@H]31)[C@H](N(CC1CC1)S(=O)(=O)c1ccccc1)C2`, the inhibition [2] is reported as 11%.

Work on `COc1ccc2c(c1)[C@H]1C[C@H](N(C)C(=O)/C=C/c3ccoc3)CC[C@@]1(O)[C@H](N(CC1CC1)S(=O)(=O)c1ccccc1)C2` yielded a Ki [1] of 842 nM.

Work on `COc1ccc2c3c1O[C@H]1[C@H](N(C)C(=O)/C=C/c4ccoc4)CC[C@](O)([C@@H]31)[C@H](N(CC1CC1)S(=O)(=O)c1ccccc1)C2` yielded a Ki [1] of 101 nM.
